Assay results published in paper PMC12165992, “Biochemical characterization of lipase from Cryptococcus albidus (D24) and its application in sugar fatty acid ester synthesis” (Archives of Microbiology, 2025).

Test system: T1, D24 lipase
T1 construct: native extracellular lipase from culture supernatant, only partially purified (dialysed, 10 kDa cut-off concentrated)
Experiment: spectrophotometric p-nitrophenyl palmitate hydrolysis, Lineweaver-Burk
Assay type: biochemical, Naganishia albida
Conditions: pH 5.6, 37 °C; partially purified native enzyme, free

CCCCCCCCCCCCCCCC(=O)Oc1ccc([N+](=O)[O-])cc1 [p-nitrophenyl palmitate]
Km: 0.158 µM
